The record followed here is US5631257A, “Benzoxazole derivatives” (Meiji Seika Kaisha, Ltd., priority 1993, dated 1997).

In assay [1] the target is T1, 5-HT3 receptor (Mus musculus, UniProt P23979).
T1 construct: membrane fraction prepared from rat N1E-115 cells; endogenous in cells; host or cells: N1E-115 cells, membrane fraction
T1 sequence (P23979 24-483 isoform P23979-2 limits assumed): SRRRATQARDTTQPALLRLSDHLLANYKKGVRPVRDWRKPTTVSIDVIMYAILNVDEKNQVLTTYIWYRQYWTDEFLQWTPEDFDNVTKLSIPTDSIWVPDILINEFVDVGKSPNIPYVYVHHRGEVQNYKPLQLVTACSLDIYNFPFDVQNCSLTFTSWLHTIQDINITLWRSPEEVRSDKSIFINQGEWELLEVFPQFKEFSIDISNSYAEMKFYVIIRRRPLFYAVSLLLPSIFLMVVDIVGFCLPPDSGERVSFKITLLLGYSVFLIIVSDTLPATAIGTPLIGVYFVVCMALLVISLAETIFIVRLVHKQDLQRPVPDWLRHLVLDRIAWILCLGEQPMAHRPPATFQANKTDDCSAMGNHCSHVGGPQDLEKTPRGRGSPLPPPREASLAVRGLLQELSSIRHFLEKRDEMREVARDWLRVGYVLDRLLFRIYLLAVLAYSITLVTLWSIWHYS
In words: 5-HT3 receptor binding affinity (inhibition of [^3 H]-GR65630 binding). Conditions: membrane fraction from rat N1E-115 cells. The text has this: Using a membrane fraction prepared from rat N1E-115 cells in accordance with the procedure of Lummis et al. (European Journal of Pharmacology, 189, 223-227, 1990), effects of the inventive compounds to inhibit binding of [^3 H]-GR65630 which was radioligand 5-HT3 antagonist to 5-HT3 receptor were examined, with the results shown in Table 1.

Assay [2] has as its system 5-HT3 receptor. As to the kind of experiment: 5-HT3 receptor antagonism (inhibition of 5-HT-induced bradycardia in anesthetized mice). The assay is classed as in vivo. The note with it: 30 minutes before 5-HT 0.25 mg/kg i.v. Here is the method:
In accordance with the procedure of Saxena et al. (Arch. Int. Pharmacodyn.,277, 235-252, 1985), each compound was dissolved in distilled water for injection to give different concentration and was administered intraperitoneally to mice which had been anesthetized with pentobarbital (3 animals per group), and ratio of inhibition of bradycardia induced by 5-HT administration (0.25 mg/kg, i.v.) was examined 30 minutes thereafter.

The next assay concerns cisplatin-treated dogs. As to the kind of experiment: Antiemetic effect in cisplatin-treated dogs. The class given is in vivo. Conditions: 0.1 × 2 mg/kg i.v., 30 minutes before and 2 hours after cisplatin 3 mg/kg i.v.; observed over 6 hours; control 13.5. On the procedure:
Each of test dogs (2 animals per group) after 16 hours of fasting was fed with 200 g of a solid food, and cisplatin was administered to the animal 30 minutes thereafter by intravenous injection with a dose of 3 mg/kg. The test compound was dissolved in distilled water for injection and was administered by intravenous injection 30 minutes before and 2 hours after the cisplatin administration, and frequency and duration of emesis were observed over 6 hours.

Where [3] appears, read: 10^-7 M, read-out: Binding inhibitory ratio of [^3 H]-GR65630 at 10^-7 M.
Setting [4] is: read-out: Binding inhibitory ratio of [^3 H]-GR65630 at 10^-7 M, 10^-7 M.

Where two headings read alike, the source gives them in different places.

Regarding `CN1CCN(c2nc3ccccc3o2)CC1` [Example 1, 2-(4-Methyl-1-piperazinyl)benzoxazole], at 5-HT3 receptor [1] (setting [3]), the inhibition at 0.1 µM turned out to be 89.4%. In the assay with 5-HT3 receptor [2] (3 mg/kg i.p.), the “Inhibitory ratio (bradycardia induced by 5-HT)” value (shortened to “Inhibitory ratio”) is 76%.

`C[N+]1(C)CCN(c2nc3ccccc3o2)CC1` [Example 2, 1,1-Dimethyl-4-(benzoxazol-2-yl)piperazinium iodide]: the inhibition at 0.1 µM at 5-HT3 receptor [1] (setting [4]) amounted to 45.5%.

Turning to `C=CC[N+]1(C)CCN(c2nc3ccccc3o2)CC1.[I-]` [Example 3, 1-Allyl-1-methyl-4-(benzoxazol-2-yl)piperazinium iodide], the inhibition at 0.1 µM at 5-HT3 receptor [1] (setting [3]) amounted to 52.8%. For the same molecule, in the assay with 5-HT3 receptor [2] (0.3 mg/kg i.p.), the “Inhibitory ratio” value is listed as 82%. Moreover, the Frequency of emesis with cisplatin-treated dogs is on record as 0 times.

Consider `C=CC[N+]1(C)CCN(c2nc3ccccc3o2)CC1` [Example 4, 1-Allyl-1-methyl-4-(benzoxazol-2-yl)piperazinium chloride], for which the inhibition at 0.1 µM on 5-HT3 receptor [1] (setting [4]) was determined as 48%.

As for `C[N+]1(CCO)CCN(c2nc3ccccc3o2)CC1.[I-]` [Example 5, 1-(2-Hydroxyethyl)-1-methyl-4-(benzoxazol-2-yl)piperazinium iodide], the inhibition at 0.1 µM at 5-HT3 receptor [1] (setting [3]) came to 78%. The “Inhibitory ratio” value in the assay with 5-HT3 receptor [2] (0.3 mg/kg i.p.) is 61%.

As for `CN1CCCN(c2nc3ccccc3o2)CC1` [Example 13, 2-(4-Methyl-1-homopiperazinyl)benzoxazole], the inhibition at 0.1 µM on 5-HT3 receptor [1] (setting [3]) turned out to be 97.3%.

For `C[N+]1(C)CCCN(c2nc3ccccc3o2)CC1` [Example 14, 1,1-Dimethyl-4-(benzoxazol-2-yl)homopiperazinium iodide], the inhibition at 0.1 µM on 5-HT3 receptor [1] (setting [3]) was found to be 44.4%.

With `C[N+]1(CCO)CCCN(c2nc3ccccc3o2)CC1` (centres unmarked) [Example 16, 1-(2-Hydroxyethyl)-1-methyl-4-(benzoxazol-2-yl)homo-piperazinium iodide], the inhibition at 0.1 µM on 5-HT3 receptor [1] (setting [3]) came out at 46%.

In the case of `OCCN1CCCN(c2nc3ccccc3o2)CC1` [Example 19, 2-[4-(2-Hydroxyethyl)-1-homopiperazinyl]benzoxazole], the inhibition at 0.1 µM at 5-HT3 receptor [1] (setting [3]) is 54.3%.

Consider `C=CC[N+]1(C)CCN(c2nc3ccc(O)cc3o2)CC1` [Example 22, 1-Allyl-1-1-methyl-4-(6-hydroxybenzoxazol-2-yl)piperazinium iodide], for which the inhibition at 0.1 µM at 5-HT3 receptor [1] (setting [3]) came out at 51.6%.
